Legend:
[1] = target: T1, Short transient receptor potential channel 6 (Mus musculus, UniProt Q61143); assay: Antagonist activity at mouse TRPC6 stably expressed in HEK293 cells inhibition of calcium influx by calcium fluorescence assay; format: cell-based
T1 sequence (Q61143 whole entry): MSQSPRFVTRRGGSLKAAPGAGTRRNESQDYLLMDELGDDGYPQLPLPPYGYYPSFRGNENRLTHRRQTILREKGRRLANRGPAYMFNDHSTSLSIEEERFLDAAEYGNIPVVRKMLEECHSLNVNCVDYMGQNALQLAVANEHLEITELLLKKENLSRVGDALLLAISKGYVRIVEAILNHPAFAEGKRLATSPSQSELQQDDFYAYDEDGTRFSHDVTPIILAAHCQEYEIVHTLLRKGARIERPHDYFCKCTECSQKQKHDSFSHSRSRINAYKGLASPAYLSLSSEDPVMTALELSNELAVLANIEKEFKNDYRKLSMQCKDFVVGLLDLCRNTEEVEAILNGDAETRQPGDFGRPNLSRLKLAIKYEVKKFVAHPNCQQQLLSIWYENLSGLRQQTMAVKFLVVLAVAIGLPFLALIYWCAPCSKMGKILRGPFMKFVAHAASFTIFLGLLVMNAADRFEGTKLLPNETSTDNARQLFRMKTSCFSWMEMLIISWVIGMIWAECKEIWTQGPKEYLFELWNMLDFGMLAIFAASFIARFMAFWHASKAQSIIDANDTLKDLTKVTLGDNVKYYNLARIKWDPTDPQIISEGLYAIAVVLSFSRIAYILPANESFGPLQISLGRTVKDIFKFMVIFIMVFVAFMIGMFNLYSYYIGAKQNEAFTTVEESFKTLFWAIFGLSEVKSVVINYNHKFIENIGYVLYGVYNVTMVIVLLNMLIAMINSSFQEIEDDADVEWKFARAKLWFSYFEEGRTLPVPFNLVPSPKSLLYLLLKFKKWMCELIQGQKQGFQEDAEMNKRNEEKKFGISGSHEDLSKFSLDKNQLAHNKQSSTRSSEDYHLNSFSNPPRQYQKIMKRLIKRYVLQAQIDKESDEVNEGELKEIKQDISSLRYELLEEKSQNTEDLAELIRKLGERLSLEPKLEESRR

U-87 MG [2] = assay: Antitumor activity against human U87 cells xenografted in BALB/c nude mouse assessed as tumor growth inhibition at 25 mg/kg/day administered as liposome encapsulated form for 15 days and measured every 3 days by vernier caliper; format: functional, U-87MG ATCC; settings: 360 h, time 15 day, read-out: TGI
A549 = assay: Antiproliferative activity against human A549 cells assessed as reduction in cell viability incubated for 72 hrs by MTT assay; format: functional, cell-based; settings: A549, 72 h
[3] = Apparent clearance in BALB/c mouse at 25 mg/kg, ip administered as liposome encapsulated form and measured upto 24 hrs by LC-MS/MS analysis; format: ADME, organism-based; settings: in vivo, read-out: CL(app) (converted)
[4] = Apparent clearance in BALB/c mouse at 12.5 mg/kg, ip administered as liposome encapsulated form and measured upto 24 hrs by LC-MS/MS analysis; format: ADME, organism-based; settings: in vivo, read-out: CL(app) (converted)
[5] = target: T2, Short transient receptor potential channel 5 (Homo sapiens, UniProt Q9UL62); assay: Antagonist activity at human TRPC5 stably expressed in HEK293 cells inhibition of calcium influx by calcium fluorescence assay; format: cell-based
T2 sequence (Q9UL62 whole entry): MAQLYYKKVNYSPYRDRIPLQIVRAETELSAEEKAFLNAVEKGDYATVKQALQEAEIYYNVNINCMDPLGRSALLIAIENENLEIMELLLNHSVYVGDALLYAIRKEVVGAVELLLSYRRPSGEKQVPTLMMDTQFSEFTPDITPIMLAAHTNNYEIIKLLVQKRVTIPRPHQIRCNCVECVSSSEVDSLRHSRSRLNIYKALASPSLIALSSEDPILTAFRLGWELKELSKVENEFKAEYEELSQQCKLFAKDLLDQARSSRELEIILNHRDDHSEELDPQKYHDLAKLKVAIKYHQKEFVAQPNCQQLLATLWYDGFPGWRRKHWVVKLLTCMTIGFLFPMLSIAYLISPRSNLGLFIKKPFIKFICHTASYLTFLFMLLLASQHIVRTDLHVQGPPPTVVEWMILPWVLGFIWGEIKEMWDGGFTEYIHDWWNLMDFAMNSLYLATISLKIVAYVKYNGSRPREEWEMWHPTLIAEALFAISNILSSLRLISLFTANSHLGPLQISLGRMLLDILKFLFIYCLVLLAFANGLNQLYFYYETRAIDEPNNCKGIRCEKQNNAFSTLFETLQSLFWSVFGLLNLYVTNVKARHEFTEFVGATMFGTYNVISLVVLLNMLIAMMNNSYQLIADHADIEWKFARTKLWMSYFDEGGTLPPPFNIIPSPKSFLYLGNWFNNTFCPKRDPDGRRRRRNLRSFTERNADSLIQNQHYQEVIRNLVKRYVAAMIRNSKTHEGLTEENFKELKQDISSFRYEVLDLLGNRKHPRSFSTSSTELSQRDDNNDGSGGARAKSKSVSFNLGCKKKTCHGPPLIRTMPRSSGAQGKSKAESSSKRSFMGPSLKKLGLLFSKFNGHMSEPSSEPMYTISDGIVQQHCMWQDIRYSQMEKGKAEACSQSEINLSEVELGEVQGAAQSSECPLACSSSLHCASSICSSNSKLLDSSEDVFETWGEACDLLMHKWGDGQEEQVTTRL

[6] = Apparent clearance in BALB/c mouse at 50 mg/kg, ip administered as liposome encapsulated form and measured upto 24 hrs by LC-MS/MS analysis; format: ADME, organism-based; settings: in vivo, read-out: CL(app) (converted)
U-87 MG [7] = assay: Antiproliferative activity against human U87 cells assessed as reduction in cell viability incubated for 72 hrs by MTT assay; format: functional, cell-based, U-87MG ATCC
[8] = AUC (0 to t) in BALB/c mouse at 12.5 mg/kg, ip administered as liposome encapsulated form and measured upto 24 hrs by LC-MS/MS analysis; format: ADME, organism-based; settings: in vivo
[9] = Tmax in BALB/c mouse at 25 mg/kg, ip administered as liposome encapsulated form and measured upto 24 hrs by LC-MS/MS analysis; format: ADME, organism-based; settings: in vivo

Compound `NCCN(Cc1ccc2ccccc2c1)c1nc(C(=O)Nc2ccc(O)cc2)cs1` has an IC50 [1] of 2.9 µM, an inhibition in vivo at 25 mg/kg/day (U-87 MG [2]) of 45.8% and an IC50 (A549) of 21.1 µM. It also gave a CL/F [3] of 3.61 L/h/kg, a CL/F [4] of 4.48 L/h/kg and an IC50 [5] of 7.6 µM. The CL/F [6] was 2.98 L/h/kg, the IC50 (U-87 MG [7]) was 5.7 µM and the AUC(0-t) at 24 h [8] was 2.55 µg·h/mL. For the same compound, the Tmax [9] was 4 h.
